Patent publication US7238677B2, “Prevention of urogenital infections” (Kimberly-Clark Worldwide, Inc., priority 2003, dated 2007)

Legend:
Format in all cases: cell-based
E. coli, ATCC 53505 = experiment: Effect on E. coli growth (optical density at 540 nm); conditions: OD 540 nm at 1, 2 and 3 hours
Description: To test whether hyaluronic acid could influence cellular growth, E. coli, ATCC 53505 cells were cultured overnight in trypticase soy broth. The culture was then diluted to an optical density of 0.1 and hyaluronic acid (1 mg/ml or 5 mg/ml) in PBS was incubated with the E. coli suspension. A control comprising a suspension E. coli treated with PBS was also prepared. The test and control cells were incubated at 37° C. with shaking and the optical density of the bacterial suspensions at 540 nm was measured at 1, 2 and 3 hours after addition of the hyaluronic acid or PBS.
(§1) All the data are expressed as mean±SEM and were analyzed by one-way Analysis of Variance (ANOVA) followed by a Tukey-Kramer Multiple Comparisons Test. Differences were considered significant at the level of p<0.05.

[1] = test system: Candida albicans, ATCC 10231; experiment: Adherence of Candida albicans to A431 cells; conditions: for number of Candida albicans adhering to A431 cells: A431 cells pre-incubated 30 minutes, colony count
Description: A culture of Candida albicans, ATCC 10231, was started as a frozen bead in peptone/glucose culture medium and incubated at 37° C. with shaking for three days before the experiment. A monolayer of A431 cells, ATCC CRL-1555, was grown on a 24-well tissue culture plate until confluent. Hyaluronic acid at concentration of 1 mg/ml PBS or 5 mg/ml PBS was added to the wells (1.2 ml/well), and the plates were incubated for 30 minutes at 35° C. A control plate of confluent A431 cells was also prepared that received 1.2 ml/well PBS and no hyaluronic acid. After the 30 min incubation, 0.7 ml of solution was removed from the wells and 0.5 ml of yeast suspension (1×10^6 cfu/ml) was added. After 2 hours of incubation, the supernatant was removed from the wells and the wells were rinsed thoroughly with PBS to remove all non-bound yeast. Then, 0.2 ml of 0.25% trypsin/EDTA was added to each well and the plates were incubated at 35° C. for 15 min. Trypsinization was stopped by adding 1 ml of 10% fetal bovine serum in culture medium. The trypsinized cell/yeast suspension was centrifuged and re-suspended in 1 ml of the medium. Serial dilutions of the Candida albicans/A431 cell suspension were plated on Sabouraud's dextrose agar plates and incubated overnight at 35° C. The number of colonies on each plate was counted and the number of yeast attached to the cells in each well was calculated.
All the data are expressed as mean ±SEM and were analyzed by one-way Analysis of Variance (ANOVA) followed by a Tukey-Kramer Multiple Comparisons Test. Differences were considered significant at the level of p<0.05.

[2] = test system: E. coli with P family pili, ATCC 53505; experiment: E. coli adhesion to A431 epithelial cells; conditions: A431 cells pre-incubated 30 minutes, OD 540 nm of 2 hr culture of bound bacteria
Description: Cultured A431 cells were used as a vaginal epithelial model. A431 cells were obtained from American Cell Type Culture Collection, catalog # CRL-1555. A monolayer of A431 cells was grown on a 24-well tissue culture plate until confluent.
E. coli with P family pili, ATCC 53505, were cultured in trypticase soy broth (TSB) overnight. Phosphate buffered saline (PBS, control) or hyaluronic acid (Sigma catalog # H 1876) solutions at a concentration of 1 mg/ml or 5 mg/ml in PBS was added to the A431 cell layers, using a volume of 1.2 ml/well. After incubation for 30 minutes at 37° C., 0.7 ml of solution was removed from the wells and 0.5 ml of the bacteria suspension was added. […] After 60 minutes, the supernatant in each well was removed and the wells were rinsed thoroughly with PBS to remove all non-bound bacteria. Trypticase soy broth was then added to wells, and the whole system was incubated at 37° C. with shaking for 2 hours. Bacterial concentration was measured by the detection of optical density of bacterial suspension at 540 nm.
as §1

hyaluronic acid
effect on bacterial growth (E. coli, ATCC 53505; 1 mg/ml in PBS): neither of the hyaluronic acid solutions had any effect on bacterial growth
effect on bacterial growth (E. coli, ATCC 53505; 5 mg/ml in PBS): neither of the hyaluronic acid solutions had any effect on bacterial growth
number of Candida albicans adhering to A431 cells ([1]; 1 mg/ml in PBS): the effect was not so significant
number of Candida albicans adhering to A431 cells ([1]; 5 mg/ml in PBS): significantly inhibited
number of yeast colonies from treated A431 cells (FIG. 4) ([1]; versus PBS-treated A431 cells, concentration not given): fewer yeast colonies
number of E. coli attached to A431 cells ([2]; 1 mg/ml in PBS): lesser effect
number of E. coli attached to A431 cells ([2]; 5 mg/ml in PBS): significantly inhibited
